Activity calls are given as the source filed them. The calls are words filed in the database; no cut-off is given here.
Key:
Rattus norvegicus [1] = test: Inhibition of the IgE-mediated passive cutaneous anaphylaxis (PCA) reaction in rat after oral administration; Inactive at 1 and 10 mg/kg; format: functional, organism-based; parameters: dose 10 mg/kg
Rattus norvegicus [2] = test: Inhibition of the IgE-mediated passive cutaneous anaphylaxis (PCA) reaction in rat after oral administration; Range 1.22-2.52; format: functional
Rattus norvegicus [3] = test: Inhibition of the IgE-mediated passive cutaneous anaphylaxis (PCA) reaction in rat after intravenous administration; […]; format: functional
Rattus norvegicus [4] = test: Inhibition of the IgE-mediated passive cutaneous anaphylaxis (PCA) reaction in rat after intravenous administration; NA means inactive at 1 and 10 mg/Kg; format: functional, organism-based
Rattus norvegicus [5] = test: Inhibition of the IgE-mediated passive cutaneous anaphylaxis (PCA) reaction in rat after intravenous administration; Range 0.24-1.05; format: functional
Rattus norvegicus [6] = test: Inhibition of the IgE-mediated passive cutaneous anaphylaxis (PCA) reaction in rat after intravenous administration; Range 0.12-0.35; format: functional
Rattus norvegicus [7] = test: Inhibition of the IgE-mediated passive cutaneous anaphylaxis (PCA) reaction in rat after intravenous administration; Range 2.20-3.00; format: functional
Rattus norvegicus [8] = test: Inhibition of the IgE-mediated passive cutaneous anaphylaxis (PCA) reaction in rat after intravenous administration; Inactive at 1 and 10 mg/kg; format: functional, organism-based; parameters: dose 10 mg/kg
Rattus norvegicus [9] = test: Inhibition of the IgE-mediated passive cutaneous anaphylaxis (PCA) reaction in rat after oral administration; NA means inactive at 1 and 10 mg/Kg; format: functional, organism-based
Rattus norvegicus [10] = test: Inhibition of the IgE-mediated passive cutaneous anaphylaxis (PCA) reaction in rat after intravenous administration; Range 0.058-0.15; format: functional
Rattus norvegicus [11] = test: Inhibition of the IgE-mediated passive cutaneous anaphylaxis (PCA) reaction in rat after intravenous administration; Range 0.18-0.41; format: functional
Rattus norvegicus [12] = test: Inhibition of the IgE-mediated passive cutaneous anaphylaxis (PCA) reaction in rat after intravenous administration; Range 0.05-0.11; format: functional
Rattus norvegicus [13] = test: Inhibition of the IgE-mediated passive cutaneous anaphylaxis (PCA) reaction in rat after intravenous administration; Range 0.02-0.38; format: functional
Rattus norvegicus [14] = test: Inhibition of the IgE-mediated passive cutaneous anaphylaxis (PCA) reaction in rat after intravenous administration; Range 0.05-0.15; format: functional
Rattus norvegicus [15] = test: Inhibition of the IgE-mediated passive cutaneous anaphylaxis (PCA) reaction in rat after intravenous administration; Range 0.04-0.154; format: functional
Rattus norvegicus [16] = test: Inhibition of the IgE-mediated passive cutaneous anaphylaxis (PCA) reaction in rat after oral administration; Range 0.3-10.04; format: functional
Rattus norvegicus [17] = test: Inhibition of the IgE-mediated passive cutaneous anaphylaxis (PCA) reaction in rat after intravenous administration; Range 0.22-0.38; format: functional
Rattus norvegicus [18] = test: Inhibition of the IgE-mediated passive cutaneous anaphylaxis (PCA) reaction in rat after oral administration; Range 0.026-0.31; format: functional
Rattus norvegicus [19] = test: Inhibition of the IgE-mediated passive cutaneous anaphylaxis (PCA) reaction in rat after intravenous administration; Range 0.13-0.26; format: functional
Rattus norvegicus [20] = test: Inhibition of the IgE-mediated passive cutaneous anaphylaxis (PCA) reaction in rat after oral administration; Range 0.29-0.4; format: functional
Rattus norvegicus [21] = test: Inhibition of the IgE-mediated passive cutaneous anaphylaxis (PCA) reaction in rat after intravenous administration; Range 0.24-0.39; format: functional
Rattus norvegicus [22] = test: Inhibition of the IgE-mediated passive cutaneous anaphylaxis (PCA) reaction in rat after intravenous administration; Range 0.005-0.033; format: functional
Rattus norvegicus [23] = test: Inhibition of the IgE-mediated passive cutaneous anaphylaxis (PCA) reaction in rat after oral administration; Range 0.025-0.282; format: functional
Rattus norvegicus [24] = test: Inhibition of the IgE-mediated passive cutaneous anaphylaxis (PCA) reaction in rat after intravenous administration; NA means inactive; format: functional, organism-based
Rattus norvegicus [25] = test: Inhibition of the IgE-mediated passive cutaneous anaphylaxis (PCA) reaction in rat after intravenous administration; Range 0.25-0.41; format: functional
Rattus norvegicus [26] = test: Inhibition of the IgE-mediated passive cutaneous anaphylaxis (PCA) reaction in rat after intravenous administration; Range 2.91-4.95; format: functional
Rattus norvegicus [27] = test: Inhibition of the IgE-mediated passive cutaneous anaphylaxis (PCA) reaction in rat after intravenous administration; Range 0.021-0.033; format: functional
Rattus norvegicus [28] = test: Inhibition of the IgE-mediated passive cutaneous anaphylaxis (PCA) reaction in rat after oral administration; Range 0.07-0.4; format: functional
Rattus norvegicus [29] = test: Inhibition of the IgE-mediated passive cutaneous anaphylaxis (PCA) reaction in rat after oral administration; Range 0.4-2.34; format: functional
Rattus norvegicus [30] = test: Inhibition of the IgE-mediated passive cutaneous anaphylaxis (PCA) reaction in rat after oral administration; Range 0.54-0.9; format: functional
Rattus norvegicus [31] = test: Inhibition of the IgE-mediated passive cutaneous anaphylaxis (PCA) reaction in rat after intravenous administration; Range 0.057-0.091; format: functional

`O=C(O)c1cn2c(cc(-c3ccccc3)c3cc(Cl)ccc32)n1` was tested, and the ED50 (Rattus norvegicus [1]) was “inactive”.
`O=C(O)c1cc2c(=O)n(C3CCCC3)c3ccccc3n2c1` showed an ED50 (Rattus norvegicus [2]) of 1.96 mg/kg and an ED50 (Rattus norvegicus [3]) of 0.037 mg/kg.
`O=C(O)Cc1cn2c(n1)COc1ccccc1-2` was tested, and the ED50 (Rattus norvegicus [4]) was “inactive”.
With `O=C(Nc1nn[nH]n1)c1cn2c(cnc3ccccc32)n1` the ED50 (Rattus norvegicus [1]) was “inactive” and the ED50 (Rattus norvegicus [5]) was 0.45 mg/kg.
For `O=C(O)c1cnc2n1-c1ccccc1OC2`, the ED50 (Rattus norvegicus [4]) was “inactive”.
`O=C(O)c1cn2c(cnc3cc(Cl)c(Cl)cc32)n1` was tested, and the ED50 (Rattus norvegicus [1]) was “inactive” and the ED50 (Rattus norvegicus [6]) was 0.2 mg/kg.
For `O=C(Cc1cn2c(n1)COc1ccccc1-2)Nc1nn[nH]n1`, the ED50 (Rattus norvegicus [4]) was “inactive”.
`CS1(=O)=Nc2nc(C(=O)O)cn2-c2ccccc21` (stereo not drawn) showed an ED50 (Rattus norvegicus [7]) of 2.59 mg/kg.
For `CCc1nc(C(=O)O)c2c(O)nc3ccccc3n12`, the ED50 (Rattus norvegicus [8]) was “inactive”.
In the case of `c1ccc2c(c1)OCc1nc(-c3nn[nH]n3)cn1-2`, the ED50 (Rattus norvegicus [9]) is reported as “inactive”.
Compound `CSc1ccc2ccc3nc(C(=O)O)cn3c2c1` has an ED50 (Rattus norvegicus [10]) of 0.095 mg/kg.
With `COC(=O)c1nc2n(c1CO)-c1ccccc1OC2` the ED50 (Rattus norvegicus [9]) was “inactive”.
`C[S+]([O-])c1cc2nc(C(=O)O)cn2c2ccccc12` (stereo not drawn) gave an ED50 (Rattus norvegicus [11]) of 0.29 mg/kg.
`CCn1c(=O)c2nc(CO)cn2c2ccccc21` gave an ED50 (Rattus norvegicus [12]) of 0.071 mg/kg.
With `OCc1cn2c(cc(Cl)c3ccc(Cl)cc32)n1` the ED50 (Rattus norvegicus [13]) was 0.16 mg/kg.
`CCc1ccc2c(Cl)cc3nc(C(=O)O)cn3c2c1` gave an ED50 (Rattus norvegicus [14]) of 0.09 mg/kg.
`O=C(O)c1cn2c(ccc3ccc(C(F)(F)F)cc32)n1` gave an ED50 (Rattus norvegicus [15]) of 0.07 mg/kg.
`CCOC(=O)c1cn2c(cc(Cl)c3ccc(Cl)cc32)n1` was tested, and the ED50 (Rattus norvegicus [16]) was 1.49 mg/kg.
`Cc1cc2sc3nc(C(=O)O)cn3c2cc1C` showed an ED50 (Rattus norvegicus [17]) of 0.3 mg/kg.
With `O=C(O)c1nc(Cc2ccccc2)n2c1c(O)nc1ccccc12` the ED50 (Rattus norvegicus [1]) was “inactive”.
`O=Cc1cn2c(ccc3ccccc32)n1` was tested, and the ED50 (Rattus norvegicus [18]) was 0.093 mg/kg.
In the case of `O=C(O)c1cn2ccc3ccccc3c2n1`, the ED50 (Rattus norvegicus [4]) is reported as “inactive”.
With `COc1ccc2ccc3nc(C(N)=O)cn3c2c1` the ED50 (Rattus norvegicus [1]) was “inactive”.
`c1ccc2c(c1)OCc1nc(CN3CCCCC3)cn1-2` was tested, and the ED50 (Rattus norvegicus [4]) was “inactive”.
In the case of `CCn1c(=O)c2cc(C(=O)Nc3nn[nH]n3)cn2c2ccccc21`, the ED50 (Rattus norvegicus [19]) is reported as 0.18 mg/kg.
`COc1ccc2c(OC)cc3nc(C(=O)O)cn3c2c1` was tested, and the ED50 (Rattus norvegicus [1]) was “inactive”.
`O=C(O)c1cn2c(ccc3ccccc32)n1` showed an ED50 (Rattus norvegicus [20]) of 0.34 mg/kg and an ED50 (Rattus norvegicus [21]) of 0.3 mg/kg.
In the case of `c1ccc2c(c1)ncc1nc(-c3nn[nH]n3)cn12`, the ED50 (Rattus norvegicus [22]) is reported as 0.012 mg/kg and the ED50 (Rattus norvegicus [23]) is reported as 0.089 mg/kg.
In the case of `CCn1c(=O)c2ccccc2n2cc(C(=O)O)nc12`, the ED50 (Rattus norvegicus [24]) is reported as “inactive”.
With `O=C(O)c1nc2n(c1CO)-c1ccccc1OC2` the ED50 (Rattus norvegicus [9]) was “inactive”.
Compound `CCn1c(=O)c2nc(C(=O)Nc3nn[nH]n3)cn2c2ccccc21` has an ED50 (Rattus norvegicus [25]) of 0.32 mg/kg.
For `CCOC(=O)c1cn2c(cnc3cc(Cl)c(Cl)cc32)n1`, the ED50 (Rattus norvegicus [9]) was “inactive”.
With `O=C(O)c1cn2c(ccc3c(Cl)cccc32)n1` the ED50 (Rattus norvegicus [26]) was 3.74 mg/kg.
With `COc1ccc2c(Cl)cc3nc(C(=O)O)cn3c2c1` the ED50 (Rattus norvegicus [27]) was 0.027 mg/kg and the ED50 (Rattus norvegicus [28]) was 0.34 mg/kg.
`Cl.Cl.NCc1cn2c(ccc3ccccc32)n1` was tested, and the ED50 (Rattus norvegicus [29]) was 0.976 mg/kg.
`O=C(O)c1cn2c(cnc3ccccc32)n1` [DAZOQUINAST] gave an ED50 (Rattus norvegicus [30]) of 0.13 mg/kg and an ED50 (Rattus norvegicus [31]) of 0.073 mg/kg.

— ChEMBL document CHEMBL1124295, “Synthesis and oral antiallergic activity of carboxylic acids derived from imidazo[2,1-c][1,4]benzoxazines, imidazo[1,2-a]quinolines, imidazo[1,2-a]quinoxalines, imidazo[1,2-a]quinoxalinones, pyrrolo[1,2-a]quinoxalinones, pyrrolo[2,3-a]quinoxalinones, and imidazo[2,1-b]benzothiazoles” (1988)
